Measured values as given in the NIST ThermoML archive (doi:10.1021/je060411g).
Several values for one entry are separate records, joined by “and”; a condition that tells them apart may be missing. Equal entries are not always repeated. ± gives the expanded uncertainty stated by the source.

Test: molar heat capacity at constant pressure
Conditions: 101.33 kPa

CCC(O)CC [3-pentanol]
molar heat capacity at constant pressure (5.43 K, Crystal): 0.93 ± 0.11 J/K/mol | molar heat capacity at constant pressure (5.48 K, Crystal): 0.88 ± 0.11 J/K/mol | molar heat capacity at constant pressure (6.3 K, Crystal): 1.18 ± 0.13 J/K/mol | molar heat capacity at constant pressure (6.63 K, Crystal): 1.23 ± 0.13 J/K/mol | molar heat capacity at constant pressure (7.14 K, Crystal): 1.52 ± 0.14 J/K/mol | molar heat capacity at constant pressure (7.71 K, Crystal): 1.85 ± 0.16 J/K/mol | molar heat capacity at constant pressure (7.86 K, Crystal): 1.91 ± 0.16 J/K/mol | molar heat capacity at constant pressure (8.49 K, Crystal): 2.31 ± 0.18 J/K/mol | molar heat capacity at constant pressure (8.59 K, Crystal): 2.43 ± 0.18 J/K/mol | molar heat capacity at constant pressure (9.16 K, Crystal): 2.77 ± 0.2 J/K/mol | molar heat capacity at constant pressure (9.61 K, Crystal): 3.11 ± 0.21 J/K/mol | molar heat capacity at constant pressure (9.92 K, Crystal): 3.43 ± 0.23 J/K/mol | molar heat capacity at constant pressure (10 K, Crystal): 3.5 ± 0.23 J/K/mol | molar heat capacity at constant pressure (10.7 K, Crystal): 4.04 ± 0.25 J/K/mol | molar heat capacity at constant pressure (10.73 K, Crystal): 4.07 ± 0.26 J/K/mol | molar heat capacity at constant pressure (11.58 K, Crystal): 4.8 ± 0.28 J/K/mol | molar heat capacity at constant pressure (11.84 K, Crystal): 5.04 ± 0.29 J/K/mol | molar heat capacity at constant pressure (12.49 K, Crystal): 5.7 ± 0.32 J/K/mol | molar heat capacity at constant pressure (13.05 K, Crystal): 6.15 ± 0.33 J/K/mol | molar heat capacity at constant pressure (13.45 K, Crystal): 6.53 ± 0.35 J/K/mol | molar heat capacity at constant pressure (14.32 K, Crystal): 7.35 ± 0.37 J/K/mol | molar heat capacity at constant pressure (14.43 K, Crystal): 7.58 ± 0.38 J/K/mol | molar heat capacity at constant pressure (15 K, Crystal): 8.21 ± 0.4 J/K/mol | molar heat capacity at constant pressure (15.45 K, Crystal): 8.54 ± 0.41 J/K/mol | molar heat capacity at constant pressure (15.63 K, Crystal): 8.59 ± 0.41 J/K/mol | molar heat capacity at constant pressure (16.51 K, Crystal): 9.66 ± 0.45 J/K/mol | molar heat capacity at constant pressure (16.98 K, Crystal): 10.07 ± 0.46 J/K/mol | molar heat capacity at constant pressure (17.58 K, Crystal): 10.69 ± 0.48 J/K/mol | molar heat capacity at constant pressure (18.36 K, Crystal): 11.47 ± 0.5 J/K/mol | molar heat capacity at constant pressure (18.67 K, Crystal): 11.8 ± 0.51 J/K/mol | molar heat capacity at constant pressure (19.77 K, Crystal): 13.01 ± 0.54 J/K/mol and 12.97 ± 0.54 J/K/mol | molar heat capacity at constant pressure (20 K, Crystal): 13.21 ± 0.54 J/K/mol | molar heat capacity at constant pressure (20.89 K, Crystal): 14.13 ± 0.56 J/K/mol | molar heat capacity at constant pressure (21.2 K, Crystal): 14.45 ± 0.57 J/K/mol | molar heat capacity at constant pressure (22.02 K, Crystal): 15.43 ± 0.59 J/K/mol | molar heat capacity at constant pressure (22.64 K, Crystal): 16.12 ± 0.61 J/K/mol | molar heat capacity at constant pressure (23.16 K, Crystal): 16.63 ± 0.62 J/K/mol | molar heat capacity at constant pressure (24.11 K, Crystal): 17.73 ± 0.64 J/K/mol | molar heat capacity at constant pressure (24.31 K, Crystal): 18.04 ± 0.64 J/K/mol | molar heat capacity at constant pressure (25 K, Crystal): 18.82 ± 0.66 J/K/mol | molar heat capacity at constant pressure (25.43 K, Crystal): 19.3 ± 0.66 J/K/mol | molar heat capacity at constant pressure (25.59 K, Crystal): 19.51 ± 0.67 J/K/mol | molar heat capacity at constant pressure (26.27 K, Crystal): 19.88 ± 0.66 J/K/mol | molar heat capacity at constant pressure (26.44 K, Crystal): 21 ± 0.69 J/K/mol | molar heat capacity at constant pressure (26.46 K, Crystal): 20.69 ± 0.68 J/K/mol | molar heat capacity at constant pressure (27.41 K, Crystal): 20.88 ± 0.67 J/K/mol | molar heat capacity at constant pressure (27.44 K, Crystal): 20.97 ± 0.67 J/K/mol | molar heat capacity at constant pressure (28.31 K, Crystal): 21.71 ± 0.68 J/K/mol | molar heat capacity at constant pressure (29.2 K, Crystal): 22.65 ± 0.69 J/K/mol | molar heat capacity at constant pressure (30 K, Crystal): 23.56 ± 0.68 J/K/mol | molar heat capacity at constant pressure (30.84 K, Crystal): 24.51 ± 0.7 J/K/mol | molar heat capacity at constant pressure (32.44 K, Crystal): 26.27 ± 0.74 J/K/mol | molar heat capacity at constant pressure (34.05 K, Crystal): 27.98 ± 0.78 J/K/mol | molar heat capacity at constant pressure (35 K, Crystal): 28.96 ± 0.8 J/K/mol | molar heat capacity at constant pressure (35.7 K, Crystal): 29.65 ± 0.82 J/K/mol | molar heat capacity at constant pressure (37.37 K, Crystal): 30.89 ± 0.84 J/K/mol | molar heat capacity at constant pressure (39.08 K, Crystal): 32.33 ± 0.88 J/K/mol | molar heat capacity at constant pressure (40 K, Crystal): 33.19 ± 0.9 J/K/mol | molar heat capacity at constant pressure (40.8 K, Crystal): 33.94 ± 0.91 J/K/mol | molar heat capacity at constant pressure (42.52 K, Crystal): 35.56 ± 0.95 J/K/mol | molar heat capacity at constant pressure (44.25 K, Crystal): 37.13 ± 0.98 J/K/mol | molar heat capacity at constant pressure (45 K, Crystal): 37.81 ± 1 J/K/mol | molar heat capacity at constant pressure (46 K, Crystal): 38.7 ± 1 J/K/mol | molar heat capacity at constant pressure (47.76 K, Crystal): 40.3 ± 1.1 J/K/mol | molar heat capacity at constant pressure (49.53 K, Crystal): 41.89 ± 1.1 J/K/mol | molar heat capacity at constant pressure (50 K, Crystal): 42.29 ± 1.1 J/K/mol | molar heat capacity at constant pressure (51.31 K, Crystal): 43.33 ± 1.1 J/K/mol | molar heat capacity at constant pressure (53.11 K, Crystal): 44.7 ± 1.2 J/K/mol | molar heat capacity at constant pressure (54.91 K, Crystal): 46.08 ± 1.2 J/K/mol | molar heat capacity at constant pressure (55 K, Crystal): 46.14 ± 1.2 J/K/mol | molar heat capacity at constant pressure (56.73 K, Crystal): 47.47 ± 1.2 J/K/mol | molar heat capacity at constant pressure (58.56 K, Crystal): 48.81 ± 1.2 J/K/mol | molar heat capacity at constant pressure (60 K, Crystal): 49.88 ± 1.3 J/K/mol | molar heat capacity at constant pressure (60.4 K, Crystal): 50.18 ± 1.3 J/K/mol | molar heat capacity at constant pressure (62.25 K, Crystal): 51.52 ± 1.3 J/K/mol | molar heat capacity at constant pressure (64.1 K, Crystal): 52.82 ± 1.3 J/K/mol | molar heat capacity at constant pressure (65 K, Crystal): 53.44 ± 1.4 J/K/mol | molar heat capacity at constant pressure (65.97 K, Crystal): 54.11 ± 1.4 J/K/mol | molar heat capacity at constant pressure (67.84 K, Crystal): 55.41 ± 1.4 J/K/mol | molar heat capacity at constant pressure (69.72 K, Crystal): 56.67 ± 1.4 J/K/mol | molar heat capacity at constant pressure (70 K, Crystal): 56.86 ± 1.4 J/K/mol | molar heat capacity at constant pressure (71.6 K, Crystal): 57.95 ± 1.5 J/K/mol | molar heat capacity at constant pressure (73.49 K, Crystal): 59.18 ± 1.5 J/K/mol | molar heat capacity at constant pressure (75 K, Crystal): 60.13 ± 1.5 J/K/mol | molar heat capacity at constant pressure (75.38 K, Crystal): 60.37 ± 1.5 J/K/mol | molar heat capacity at constant pressure (77.28 K, Crystal): 61.55 ± 1.5 J/K/mol | molar heat capacity at constant pressure (79.19 K, Crystal): 62.78 ± 1.6 J/K/mol | molar heat capacity at constant pressure (80 K, Crystal): 63.27 ± 1.6 J/K/mol | molar heat capacity at constant pressure (81.1 K, Crystal): 63.93 ± 1.6 J/K/mol | molar heat capacity at constant pressure (83.01 K, Crystal): 65.07 ± 1.6 J/K/mol | molar heat capacity at constant pressure (84.93 K, Crystal): 66.32 ± 1.6 J/K/mol | molar heat capacity at constant pressure (85 K, Crystal): 66.36 ± 1.6 J/K/mol | molar heat capacity at constant pressure (86.86 K, Crystal): 67.47 ± 1.7 J/K/mol | molar heat capacity at constant pressure (88.78 K, Crystal): 68.55 ± 1.7 J/K/mol | molar heat capacity at constant pressure (90 K, Crystal): 69.21 ± 2.1 J/K/mol | molar heat capacity at constant pressure (90.7 K, Crystal): 69.61 ± 2.1 J/K/mol | molar heat capacity at constant pressure (92.62 K, Crystal): 70.75 ± 2.1 J/K/mol | molar heat capacity at constant pressure (94.54 K, Crystal): 71.9 ± 2.1 J/K/mol | molar heat capacity at constant pressure (95 K, Crystal): 72.17 ± 2.1 J/K/mol | molar heat capacity at constant pressure (96.47 K, Crystal): 72.98 ± 2.1 J/K/mol | molar heat capacity at constant pressure (98.4 K, Crystal): 74.27 ± 2.1 J/K/mol | molar heat capacity at constant pressure (98.9 K, Glass): 77.69 ± 2.2 J/K/mol | molar heat capacity at constant pressure (99.63 K, Glass): 77.09 ± 2.2 J/K/mol | molar heat capacity at constant pressure (100 K, Crystal): 76.23 ± 2.2 J/K/mol | molar heat capacity at constant pressure (100.34 K, Crystal): 75.65 ± 2.2 J/K/mol | molar heat capacity at constant pressure (100.42 K, Crystal): 75.69 ± 2.2 J/K/mol | molar heat capacity at constant pressure (100.73 K, Crystal): 75.56 ± 2.2 J/K/mol | molar heat capacity at constant pressure (101.47 K, Glass): 78.26 ± 2.2 J/K/mol | molar heat capacity at constant pressure (101.88 K, Crystal): 76.15 ± 2.2 J/K/mol | molar heat capacity at constant pressure (103.84 K, Crystal): 77.02 ± 2.2 J/K/mol | molar heat capacity at constant pressure (104.37 K, Glass): 79.98 ± 2.2 J/K/mol | molar heat capacity at constant pressure (105 K, Crystal): 79.46 ± 2.2 J/K/mol | molar heat capacity at constant pressure (105.79 K, Crystal): 78.1 ± 2.2 J/K/mol | molar heat capacity at constant pressure (107.23 K, Glass): 82.34 ± 2.3 J/K/mol | molar heat capacity at constant pressure (107.74 K, Crystal): 79.42 ± 2.2 J/K/mol | molar heat capacity at constant pressure (109.68 K, Crystal): 80.42 ± 2.3 J/K/mol | molar heat capacity at constant pressure (110 K, Crystal): 83.89 ± 2.3 J/K/mol | molar heat capacity at constant pressure (110.1 K, Glass): 84.56 ± 2.3 J/K/mol | molar heat capacity at constant pressure (111.63 K, Crystal): 81.37 ± 2.3 J/K/mol | molar heat capacity at constant pressure (112.97 K, Glass): 86.83 ± 2.4 J/K/mol | molar heat capacity at constant pressure (113.58 K, Crystal): 82.36 ± 2.3 J/K/mol | molar heat capacity at constant pressure (115.54 K, Crystal): 83.34 ± 2.4 J/K/mol | molar heat capacity at constant pressure (115.84 K, Glass): 89.3 ± 2.4 J/K/mol | molar heat capacity at constant pressure (117.49 K, Crystal): 84.31 ± 2.3 J/K/mol | molar heat capacity at constant pressure (118.71 K, Glass): 92.11 ± 2.5 J/K/mol | molar heat capacity at constant pressure (119.44 K, Crystal): 85.07 ± 2.3 J/K/mol | molar heat capacity at constant pressure (120 K, Crystal): 82.36 ± 2.3 J/K/mol | molar heat capacity at constant pressure (121.39 K, Crystal): 86.04 ± 2.5 J/K/mol | molar heat capacity at constant pressure (121.59 K, Glass): 95.01 ± 2.5 J/K/mol | molar heat capacity at constant pressure (123.34 K, Crystal): 87.47 ± 2.4 J/K/mol | molar heat capacity at constant pressure (124.46 K, Glass): 99.21 ± 2.6 J/K/mol | molar heat capacity at constant pressure (125.29 K, Crystal): 88.5 ± 2.4 J/K/mol | molar heat capacity at constant pressure (127.24 K, Crystal): 89.59 ± 2.4 J/K/mol | molar heat capacity at constant pressure (127.34 K, Glass): 104.26 ± 2.7 J/K/mol | molar heat capacity at constant pressure (129.2 K, Crystal): 90.65 ± 2.5 J/K/mol | molar heat capacity at constant pressure (131.15 K, Crystal): 91.7 ± 2.5 J/K/mol | molar heat capacity at constant pressure (133.11 K, Crystal): 92.81 ± 2.5 J/K/mol | molar heat capacity at constant pressure (135.06 K, Crystal): 93.83 ± 2.5 J/K/mol | molar heat capacity at constant pressure (135.56 K, Liquid): 147.41 ± 3.5 J/K/mol | molar heat capacity at constant pressure (137.01 K, Crystal): 94.96 ± 2.5 J/K/mol | molar heat capacity at constant pressure (138.31 K, Liquid): 149.27 ± 3.6 J/K/mol | molar heat capacity at constant pressure (138.96 K, Crystal): 95.99 ± 2.5 J/K/mol | molar heat capacity at constant pressure (140.92 K, Crystal): 97.1 ± 2.6 J/K/mol | molar heat capacity at constant pressure (141.2 K, Liquid): 149.61 ± 3.6 J/K/mol | molar heat capacity at constant pressure (142.87 K, Crystal): 98.24 ± 2.6 J/K/mol | molar heat capacity at constant pressure (144.14 K, Liquid): 149.91 ± 3.6 J/K/mol | molar heat capacity at constant pressure (144.82 K, Crystal): 99.32 ± 2.6 J/K/mol | molar heat capacity at constant pressure (146.77 K, Crystal): 100.55 ± 2.6 J/K/mol | molar heat capacity at constant pressure (147.09 K, Liquid): 150.15 ± 3.6 J/K/mol | molar heat capacity at constant pressure (148.72 K, Crystal): 101.76 ± 2.7 J/K/mol | molar heat capacity at constant pressure (150.04 K, Liquid): 150.36 ± 3.6 J/K/mol | molar heat capacity at constant pressure (150.67 K, Crystal): 103.08 ± 2.7 J/K/mol | molar heat capacity at constant pressure (152.61 K, Crystal): 104.4 ± 2.7 J/K/mol
